Test [1] has as its target PI3Kβ (complex of human p110β and human p85α) (Homo sapiens (Human), UniProt P42338). The experiment in a line: PI3Kβ kinase assay (HTRF-based PI3K inhibition assay).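 As to all read-outs here: Kinase-made PIP3 detected by HTRF, displacing biotinylated PIP3 tracer from a complex of Europium anti-GST antibody, GST-fused PH domain and Streptavidin-APC, read as Europium-to-APC energy transfer.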 The format is biochemical. Conditions: for inhibition at 0.93 µM: 0.93 μM compound, read-out: PI3K beta average % Inhibition at 0.93 μM; for IC50: 10 μM ATP, 10 μM PIP2, 20 min at 22° C., read-out: average IC50 in the PI3K beta biochemical assay; for PI3K beta average IC50/PI3K alpha average IC50: ratio of beta IC50 to alpha IC50.
Text: (§1) Determination of % Inhibition and IC50 Values of Compounds in PI3Kα Kinase Assay
PI3Kα inhibitory activity of compounds of the present invention was quantified employing the HTRF based PI3K inhibition assay as described below.
(§2) As reagents for the kinase reaction itself and the quantification of the reaction product, the PI3-Kinase HTRF Assay kit from Millipore (#33-017) was used. With this kit the phosphatidylinositol 3,4,5-trisphosphate (PIP3) generated in the kinase reaction is detected by displacement of a biotinylated ligand from an energy transfer complex consisting of a Europium-labeled anti-GST monoclonal antibody, a GST-tagged PH domain, biotinylated PIP3 and Streptavidin-Allophycocyanin (APC).
For the assay 50 nL of a 80-fold concentrated solution of the test compound in DMSO was pipetted into a black low volume 384-well microtiter plate (Greiner Bio-One, Frickenhausen, Germany), 3 μl of a solution of PI3Kβ and phosphatidylinositol-4,5-bisphosphate (PIP2, 13.8 μM=> final conc. in 4 μl reaction volume=10 μM) in 1× reaction buffer (exact composition not disclosed by the vendor) were added and the mixture was incubated for 15 min at 22° C. to allow pre-binding of the test compounds to the enzyme before the start of the kinase reaction. The amount of PI3Kβ was chosen to have the enzyme reaction in the linear range and depended on the activity of the individual lot, typical concentrations in assay were in the range of 120 ng/mL. Then the kinase reaction was started by the addition of 1 μL of a solution of adenosine triphosphate (ATP, 40 μM=> final conc. in the 4 μl assay volume is 10 μM) in reaction buffer and the resulting mixture was incubated for a reaction time of 20 min at 22° C.
The reaction was stopped by the addition of 1 μL of an stop solution (containing the biotinylated PIP3 used as a tracer). Then 1 μL detection mix (containing a Europium-labeled anti-GST monoclonal antibody, a GST-tagged PH domain, and Streptavidin-Allophycocyanin) was added and resulting mixture was incubated for 3 h at 22° C. to allow the formation of complexes between the detection reagents and either the PIP3 generated in the kinase reaction, or the biotinylated PIP3 added with the stop solution. Subsequently the amount of energy transfer complex consisting of a Europium-labeled anti-GST monoclonal antibody, a GST-tagged PH domain, biotinylated PIP3 and Streptavidin-Allophycocyanin (APC) was evaluated by measurement of the resonance energy transfer from the Europium-labeled anti-GST monoclonal antibody to the Streptavidin-Allophycocyanin. Therefore, the fluorescence emissions at 620 nm and 665 nm after excitation at 350 nm were measured using a TR-FRET reader, e.g., a Pherastar (BMG Labtechnologies, Offenburg, Germany) or a Viewlux (Perkin-Elmer). The ratio of the emissions at 665 nm and at 622 nm were taken as the measure for the amount of biotinylated PIP3 bound to the GST-tagged PH domain, which is negatively correlated with the amount of PIP3 generated.

Test [2] deals with PI3Kα (complex of human p110α and human p85α) (Homo sapiens (Human), UniProt P42336). The experiment in a line: PI3Kα kinase assay (HTRF-based PI3K inhibition assay).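 As to all read-outs here: PIP3 product detected by HTRF, reading resonance energy transfer from Europium-labeled anti-GST antibody to Streptavidin-APC, as displacement of biotinylated PIP3 tracer from the GST-PH domain complex.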 It is filed as biochemical. To be noted: for inhibition at 0.93 µM: 0.93 μM compound, read-out: PI3K alpha average % Inhibition at 0.93 μM; for IC50: 10 μM ATP, 10 μM PIP2, 20 min at 22° C., read-out: average IC50 in the PI3K alpha biochemical assay. In general terms: In TR-FRET formats the signal depends on donor and acceptor labels being close together.
Chain of PI3Kα (complex of human p110α and human p85α) (P42336 whole entry, the tested form may be a part): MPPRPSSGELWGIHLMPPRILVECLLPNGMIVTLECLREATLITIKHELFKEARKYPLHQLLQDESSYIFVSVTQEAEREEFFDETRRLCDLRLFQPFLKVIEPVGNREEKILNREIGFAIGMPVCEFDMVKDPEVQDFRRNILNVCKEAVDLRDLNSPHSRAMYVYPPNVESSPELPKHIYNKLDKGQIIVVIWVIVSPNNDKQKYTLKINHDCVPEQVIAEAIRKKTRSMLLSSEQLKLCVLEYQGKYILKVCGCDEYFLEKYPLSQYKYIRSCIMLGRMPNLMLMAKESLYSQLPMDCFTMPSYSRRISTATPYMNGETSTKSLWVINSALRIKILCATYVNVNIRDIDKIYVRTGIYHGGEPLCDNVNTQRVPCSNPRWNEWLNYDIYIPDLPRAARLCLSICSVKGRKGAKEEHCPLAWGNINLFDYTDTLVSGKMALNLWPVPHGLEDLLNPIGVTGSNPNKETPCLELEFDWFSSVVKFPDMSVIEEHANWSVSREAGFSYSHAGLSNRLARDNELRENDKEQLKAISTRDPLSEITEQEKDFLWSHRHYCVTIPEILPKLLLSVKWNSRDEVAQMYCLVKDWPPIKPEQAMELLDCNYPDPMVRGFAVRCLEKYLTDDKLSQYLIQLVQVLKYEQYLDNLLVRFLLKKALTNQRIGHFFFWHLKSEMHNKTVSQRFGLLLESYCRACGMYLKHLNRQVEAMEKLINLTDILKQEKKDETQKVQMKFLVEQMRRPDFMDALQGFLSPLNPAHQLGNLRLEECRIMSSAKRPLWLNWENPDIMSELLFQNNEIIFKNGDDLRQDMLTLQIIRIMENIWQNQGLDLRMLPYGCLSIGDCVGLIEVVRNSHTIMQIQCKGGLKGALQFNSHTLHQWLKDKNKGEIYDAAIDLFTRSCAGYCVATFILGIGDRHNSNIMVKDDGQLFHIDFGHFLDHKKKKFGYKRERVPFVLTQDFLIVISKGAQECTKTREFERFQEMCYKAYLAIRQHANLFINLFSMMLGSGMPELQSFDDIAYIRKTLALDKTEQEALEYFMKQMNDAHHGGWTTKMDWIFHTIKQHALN
Chain of PI3Kα (complex of human p110α and human p85α) (P27986 whole entry partner, the tested form may be a part): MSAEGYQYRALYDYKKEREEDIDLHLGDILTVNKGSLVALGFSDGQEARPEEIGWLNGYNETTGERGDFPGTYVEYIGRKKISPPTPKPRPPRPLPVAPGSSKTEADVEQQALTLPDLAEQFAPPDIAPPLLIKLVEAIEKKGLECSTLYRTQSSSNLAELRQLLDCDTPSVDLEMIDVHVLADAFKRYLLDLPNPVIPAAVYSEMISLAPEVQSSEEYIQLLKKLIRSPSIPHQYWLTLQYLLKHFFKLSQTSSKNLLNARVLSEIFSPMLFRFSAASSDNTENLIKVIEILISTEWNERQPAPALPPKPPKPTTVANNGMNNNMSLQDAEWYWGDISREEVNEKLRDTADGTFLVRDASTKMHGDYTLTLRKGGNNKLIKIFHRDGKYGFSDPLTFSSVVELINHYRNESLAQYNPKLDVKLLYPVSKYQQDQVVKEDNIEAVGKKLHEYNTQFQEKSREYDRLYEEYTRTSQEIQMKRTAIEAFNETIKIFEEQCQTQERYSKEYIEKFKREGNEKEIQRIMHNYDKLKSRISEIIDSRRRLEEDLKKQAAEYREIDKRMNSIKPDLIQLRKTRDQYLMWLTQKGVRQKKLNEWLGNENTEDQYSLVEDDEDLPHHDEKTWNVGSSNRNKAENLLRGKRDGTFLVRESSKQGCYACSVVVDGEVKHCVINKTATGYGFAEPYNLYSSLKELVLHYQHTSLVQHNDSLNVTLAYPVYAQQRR
Text: as §1
PI3Kα inhibitory activity of compounds of the present invention was quantified employing the HTRF-based PI3K inhibition assay as described below.
as §2
For the assay 50 nL of a 80-fold concentrated solution of the test compound in DMSO was pipetted into a black low volume 384-well microtiter plate (Greiner Bio-One, Frickenhausen, Germany), 3 μL of a solution of PI3Kα and phosphatidylinositol-4,5-bisphosphate (PIP2, 13.8 μM=> final conc. in 4 μl reaction volume=10 μM) in 1× reaction buffer (exact composition not disclosed by the vendor) were added and the mixture was incubated for 15 min at 22° C. to allow pre-binding of the test compounds to the enzyme before the start of the kinase reaction. The amount of PI3Kα was chosen to have the enzyme reaction in the linear range and depended on the activity of the individual lot, typical concentrations in assay were in the range of 90 ng/mL. Then the kinase reaction was started by the addition of 1 μL of a solution of adenosine triphosphate (ATP, 40 μM=> final conc. in the 4 μL assay volume is 10 μM) in reaction buffer and the resulting mixture was incubated for a reaction time of 20 min at 22° C.
The reaction was stopped by the addition of 1 μL of an stop solution (containing the biotinylated PIP3 used as a tracer), then 1 μL detection mix (containing a Europium-labeled anti-GST monoclonal antibody, a GST-tagged PH domain, and Streptavidin-Allophycocyanin) was added and resulting mixture was incubated 3 h at 22° C. to allow the formation of complexes between the detection reagents and either the PIP3 generated in the kinase reaction, or the biotinylated PIP3 added with the stop solution. Subsequently, the amount of energy transfer complex consisting of a Europium-labeled anti-GST monoclonal antibody, a GST-tagged PH domain, biotinylated PIP3 and Streptavidin-Allophycocyanin (APC) was evaluated by measurement of the resonance energy transfer from the Europium-labeled anti-GST monoclonal antibody to the Streptavidin-Allophycocyanin. Therefore, the fluorescence emissions at 620 nm and 665 nm after excitation at 350 nm were measured using a TR-FRET reader, e.g., a Pherastar (BMG Labtechnologies, Offenburg, Germany) or a Viewlux (Perkin-Elmer). The ratio of the emissions at 665 nm and at 622 nm was taken as the measure for the amount of biotinylated PIP3 bound to the GST-tagged PH domain, which is negatively correlated with the amount of PIP3 generated.

Chain of PI3Kβ (complex of human p110β and human p85α) (P42338 whole entry, the tested form may be a part): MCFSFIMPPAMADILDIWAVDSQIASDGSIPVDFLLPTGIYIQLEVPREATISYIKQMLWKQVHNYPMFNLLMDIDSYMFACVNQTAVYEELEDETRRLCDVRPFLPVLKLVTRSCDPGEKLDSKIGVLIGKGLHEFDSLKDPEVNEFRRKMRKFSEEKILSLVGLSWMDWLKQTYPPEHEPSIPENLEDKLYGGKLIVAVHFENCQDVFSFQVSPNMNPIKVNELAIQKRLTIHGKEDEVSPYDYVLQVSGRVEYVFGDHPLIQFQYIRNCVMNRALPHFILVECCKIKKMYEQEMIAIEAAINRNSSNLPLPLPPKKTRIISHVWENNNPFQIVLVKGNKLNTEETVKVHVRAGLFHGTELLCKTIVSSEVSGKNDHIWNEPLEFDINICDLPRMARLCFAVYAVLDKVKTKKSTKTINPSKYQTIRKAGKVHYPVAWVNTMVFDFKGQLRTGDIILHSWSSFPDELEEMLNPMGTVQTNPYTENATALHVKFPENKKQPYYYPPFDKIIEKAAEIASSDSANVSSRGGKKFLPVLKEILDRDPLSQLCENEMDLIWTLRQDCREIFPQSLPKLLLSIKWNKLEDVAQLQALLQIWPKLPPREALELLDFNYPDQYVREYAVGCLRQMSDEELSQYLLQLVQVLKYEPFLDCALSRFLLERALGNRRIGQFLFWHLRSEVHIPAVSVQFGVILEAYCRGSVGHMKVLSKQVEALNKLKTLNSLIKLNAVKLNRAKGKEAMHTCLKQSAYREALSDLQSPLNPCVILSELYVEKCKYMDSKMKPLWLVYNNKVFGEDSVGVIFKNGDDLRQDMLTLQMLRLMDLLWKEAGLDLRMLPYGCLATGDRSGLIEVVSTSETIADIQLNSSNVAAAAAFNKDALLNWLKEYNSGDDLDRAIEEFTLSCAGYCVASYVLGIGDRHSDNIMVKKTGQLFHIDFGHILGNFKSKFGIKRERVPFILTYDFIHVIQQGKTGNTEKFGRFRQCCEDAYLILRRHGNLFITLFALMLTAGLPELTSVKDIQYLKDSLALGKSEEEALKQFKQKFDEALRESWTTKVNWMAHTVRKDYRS
Chain of PI3Kβ (complex of human p110β and human p85α) (P27986 whole entry partner, the tested form may be a part): as the sequence (P27986 whole entry partner, the tested form may be a part) above

`COc1c(OC[C@H](O)CN2CCOCC2)ccc2c1N=C(NC(=O)c1cncs1)N1CCN=C21` [Example 32, N-(8-{[(2R)-2-Hydroxy-3-(morpholin-4-yl)propyl]oxy}-7-methoxy-2,3-dihydroimidazo[1,2-c]quinazolin-5-yl)-1,3-thiazole-5-carboxamide]: in test [1], the inhibition (in general, the change of the read-out against control, counted positive when it falls) at 0.93 µM stood at 95.5%; the 50% inhibitory concentration (IC50) (in general, the concentration at which inhibition is half-maximal) was 10 to 50 nM; the “PI3K beta average IC50/PI3K alpha average IC50” value is given as 5.91. In addition, in test [2], the inhibition at 0.93 µM was found to be 96.1% and the half-inhibitory concentration (IC50) is below 10 nM.
Consider `COc1c(OC[C@H](O)CN2C[C@@H](C)O[C@@H](C)C2)ccc2c1N=C(NC(=O)c1cncs1)N1CCN=C21` [Example 34, N-[8-({(2R)-3-[(2R,6S)-2,6-dimethylmorpholin-4-yl]-2-hydroxypropyl}oxy)-7-methoxy-2,3-dihydroimidazo[1,2-c]quinazolin-5-yl]-1,3-thiazole-5-carboxamide], for which, in test [1], the inhibition at 0.93 µM stood at 97.1%, the IC50 lay within 10 to 50 nM and the “PI3K beta average IC50/PI3K alpha average IC50” value is on record as 7.21. Further, in test [2], the inhibition at 0.93 µM amounted to 94.2% and the 50% inhibitory concentration (IC50) was below 10 nM.
In the case of `COc1c(OC[C@H](O)CN2CCC2)ccc2c1N=C(NC(=O)c1cncs1)N1CCN=C21` [Example 35, N-(8-{[(2R)-3-(Azetidin-1-yl)-2-hydroxypropyl]oxy}-7-methoxy-2,3-dihydroimidazo[1,2-c]quinazolin-5-yl)-1,3-thiazole-5-carboxamide], in test [1], the inhibition at 0.93 µM was 102%, the 50% inhibitory concentration (IC50) was in the range of 10 to 50 nM and the “PI3K beta average IC50/PI3K alpha average IC50” value is 6.30. In test [2], the inhibition at 0.93 µM amounted to 109% and the half-maximal inhibitory concentration (IC50) was below 10 nM.
On to `COc1c(OC[C@H](O)CN2CCCC2)ccc2c1N=C(NC(=O)c1cncs1)N1CCN=C21` [Example 36, N-(8-{[(2R)-2-Hydroxy-3-(pyrrolidin-1-yl)propyl]oxy}-7-methoxy-2,3-dihydroimidazo[1,2-c]quinazolin-5-yl)-1,3-thiazole-5-carboxamide], for which, in test [1], the inhibition at 0.93 µM is 93.9%, the half-inhibitory concentration (IC50) was 10 to 50 nM and the “PI3K beta average IC50/PI3K alpha average IC50” value is given as 3.41. Besides, in test [2], the inhibition at 0.93 µM is 92.4% and the concentration for half-maximal inhibition (IC50) is below 10 nM.
Regarding `COc1c(OC[C@H](O)CN2CCCCC2)ccc2c1N=C(NC(=O)c1cncs1)N1CCN=C21` [Example 37, N-(8-{[(2R)-2-Hydroxy-3-(piperidin-1-yl)propyl]oxy}-7-methoxy-2,3-dihydroimidazo[1,2-c]quinazolin-5-yl)-1,3-thiazole-5-carboxamide], in test [1], the inhibition at 0.93 µM is 93.7%, the IC50 was 10 to 50 nM and the “PI3K beta average IC50/PI3K alpha average IC50” value is recorded as 2.98. Besides, in test [2], the inhibition at 0.93 µM is 103% and the concentration for half-maximal inhibition (IC50) is below 10 nM.
In the case of `COc1c(OC[C@H](O)CN2CCCC2)ccc2c1N=C(NC(=O)c1scnc1C)N1CCN=C21` [Example 38, N-(8-{[(2R)-2-Hydroxy-3-(pyrrolidin-1-yl)propyl]oxy}-7-methoxy-2,3-dihydroimidazo[1,2-c]quinazolin-5-yl)-4-methyl-1,3-thiazole-5-carboxamide], in test [1], the inhibition at 0.93 µM was found to be 95.1%, the concentration for half-maximal inhibition (IC50) is below 10 nM and the “PI3K beta average IC50/PI3K alpha average IC50” value was found to be 5.64. Further, in test [2], the inhibition at 0.93 µM worked out at 92.8% and the half-inhibitory concentration (IC50) was below 10 nM.
Take `COc1c(OC[C@H](O)CN2CCOCC2)ccc2c1N=C(NC(=O)c1sc(N)nc1C)N1CCN=C21` [Example 39, 2-Amino-N-(8-{[(2R)-2-hydroxy-3-(morpholin-4-yl)propyl]oxy}-7-methoxy-2,3-dihydroimidazo[1,2-c]quinazolin-5-yl)-4-methyl-1,3-thiazole-5-carboxamide]: in test [1], the inhibition at 0.93 µM is 122%, the IC50 is below 10 nM and the “PI3K beta average IC50/PI3K alpha average IC50” value worked out at 5.32. For the same compound, in test [2], the inhibition at 0.93 µM came to 110% and the half-inhibitory concentration (IC50) is below 10 nM.
For the compound `COc1c(OC[C@H](O)CN2CCCC2)ccc2c1N=C(NC(=O)c1cnco1)N1CCN=C21` [Example 40, N-(8-{[(2R)-2-Hydroxy-3-(pyrrolidin-1-yl)propyl]oxy}-7-methoxy-2,3-dihydroimidazo[1,2-c]quinazolin-5-yl)-1,3-oxazole-5-carboxamide], in test [1], the inhibition at 0.93 µM is 72.7% and the IC50 is above 50 nM. For the same compound, in test [2], the inhibition at 0.93 µM was 88% and the IC50 is above 50 nM.
For `COc1c(OC[C@H](O)CN(C(C)C)C(C)C)ccc2c1N=C(NC(=O)c1cncs1)N1CCN=C21` [Example 41, N-(8-{[(2R)-3-(dipropan-2-ylamino)-2-hydroxypropyl]oxy}-7-methoxy-2,3-dihydroimidazo[1,2-c]quinazolin-5-yl)-1,3-thiazole-5-carboxamide], in test [1], the inhibition at 0.93 µM amounted to 99.3%, the 50% inhibitory concentration (IC50) lay in the range of 10 to 50 nM and the “PI3K beta average IC50/PI3K alpha average IC50” value is listed as 5.83. For the same compound, in test [2], the inhibition at 0.93 µM came out at 95.7% and the IC50 is below 10 nM.

Source of the values: patent US8895549B2, “Aminoalcohol substituted 2,3-dihydroimidazo[1,2-c]quinazoline derivatives useful for treating hyper-proliferative disorders and diseases associated with angiogenesis” (Bayer Intellectual Property GmbH, priority 2010, dated 2014).
